{"source": "patent US20250000873A1", "about": "“INHALED ILOPROST FOR RESCUE TREATMENT AND TREATMENT AS NEEDED IN PULMONARY HYPERTENSION” (JUSTUS-LIEBIG-UNIVERSITAET GIESSEN, priority 2021, published 2025)", "key": {"[1]": {"tested_on": "patients with pulmonary arterial hypertension", "experiment": "Clinical pilot study of iloprost PRN, hemodynamics by intracardiac catheter and tolerability", "format": "in vivo, human", "procedure": "A clinical pilot study to evaluate the feasibility of iloprost PRN was conducted with 4 patients. Eligible were male and female patients with pulmonary arterial hypertension in the age from 18 to 70 years having a mean pulmonary arterial blood pressure (PAP) higher than 25 mm Hg, a pulmonary vascular resistance (PVR) higher than 240 dyn*s*cm−5, a central venous pressure (CVP) higher than 3 mm Hg, and a pulmonary capillary wedge pressure (PCWP) lower than 12 mm Hg. Patients were therapy-naïve, or were receiving PH-specific medication (endothelin receptor antagonists, phosphodiesterase type 5 inhibitors, prostacyclin analogues) alone or in combination. Patients were monitored by ECG, pulse oxymetry, and non-invasive blood pressure measurement. An intracardiac catheter was introduced into the distal pulmonary artery to measure PAP, CVP, PCWP, and cardiac output. Also measured were the heart rate, systemic arterial pressure (SAP), systemic vascular resistance (SVR), central arterial and venous blood gases. After the initial determination of all parameters the reactivity of the pulmonary vasculature to oxygen (2 to 4 L/min) and nitric oxide (20 ppm) was tested. Subsequently, patients inhaled a single dose of 2.5 μg of nebulized iloprost in two breaths, using a prototype of a soft mist inhaler filled with iloprost in a concentration of 50 μg/ml. Hemodynamic parameters and clinical condition of the patients were assessed before and 1, 5, 15 and 30 minutes after inhalation. In the absence of adverse effects, a second inhalation maneuver with 4 breaths corresponding to a dose 5 μg iloprost was performed, again followed by an observation period of at least 30 minutes."}, "[2]": {"tested_on": "hemodynamic parameters of pulmonary circulation", "settings": "conventional nebulizers, administered over 10 minutes; cited from earlier work"}}, "note": "Entries after “also recorded” stand apart in the source; their conditions may differ.", "data": [{"smiles": "CC#CCC(C)[C@H](O)/C=C/[C@@H]1[C@H]2C/C(=C/CCCC(=O)O)C[C@H]2C[C@H]1O", "note": "(stereo partly drawn) [iloprost, 5-{(E)-(1S,5S,6R,7R)-7-hydroxy-6[(E)-(3S,4RS)-3-hydroxy-4-methyl-1-octen-6-inyl]-bicyclo[3.3.0]octan-3-ylidene}pentanoic acid]", "values": [{"measurement": "Tolerability of the treatment", "setting": "[1]; inhaled 2.5 μg (2 breaths) then 5 μg (4 breaths), prototype soft mist inhaler, iloprost 50 μg/ml, 4 patients", "value": "all patients tolerated the treatment well"}, {"measurement": "Systemic side effects (SAP and SVR changes)", "setting": "[1]; inhaled 2.5 μg or 5 μg, soft mist inhaler prototype, n=4", "value": "without significant systemic side effects"}, {"measurement": "Onset of therapeutic pulmonary vascular effects (PAP and PVR changes)", "setting": "[1]; rapid inhalation of 2.5 μg or 5 μg (2 or 4 puffs à 1.25 μg), soft mist inhaler prototype, n=4", "value": "already seen within only one minute after rapid iloprost inhalation; also recorded: already registered one minute after finishing the inhalation maneuver"}, {"measurement": "Time of maximum therapeutic effects on hemodynamic parameters of pulmonary circulation after end of inhalation", "setting": "[2]", "value": "approximately 5 minutes"}]}]}
